Among the data in ChEMBL document CHEMBL1140320, “Second generation transition state analogue inhibitors of human 5'-methylthioadenosine phosphorylase” (J Med Chem, 2005) are Ki and Km values, retold here.

In data set [1] the target is T1, S-methyl-5'-thioadenosine phosphorylase (Homo sapiens, UniProt Q13126).
T1 sequence (Q13126 whole entry): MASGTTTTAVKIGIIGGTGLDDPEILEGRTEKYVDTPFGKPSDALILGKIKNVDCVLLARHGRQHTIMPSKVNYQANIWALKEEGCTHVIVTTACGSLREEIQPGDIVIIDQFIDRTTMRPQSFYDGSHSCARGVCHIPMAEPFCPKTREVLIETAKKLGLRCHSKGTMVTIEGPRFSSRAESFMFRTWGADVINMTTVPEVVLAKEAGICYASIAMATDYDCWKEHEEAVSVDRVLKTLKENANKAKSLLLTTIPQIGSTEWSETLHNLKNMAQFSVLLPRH
Kind of data set: Inhibition of human MTAP as initial dissociation constant.

Data set [2] has as its target T1, S-methyl-5'-thioadenosine phosphorylase. Kind of data set: Inhibition of human MTAP as equilibrium dissociation constant.
For data set [3] the target is unchanged. As to the kind of experiment: Inhibition of human MTAP as equilibrium dissociation constant; ND=no slow-onset phase.
Substrate in data set [4]: CSC[C@H]1O[C@@H](n2cnc3c(N)ncnc32)[C@H](O)[C@@H]1O
As to the kind of experiment: Km for human MTAP.

One may read the Ki as the equilibrium dissociation constant of an inhibitor or competing ligand from its target. A high value points to weaker binding. On to `NC1N=CNc2c(CN3CC(O)C(CSc4ccncc4)C3)c[nH]c21` (stereo not drawn), for which the inhibitory constant (Ki) in data set [1] came to 2 nM; in data set [2], 0.16 nM. The matching figures for `CCCSCC1CN(Cc2c[nH]c3c2NC=NC3N)CC1O` (stereo not drawn): 1.3 nM and 0.12 nM. The matching figures for `CSCC1CN(Cc2c[nH]c3c(N)ncnc23)CC1O` (stereo not drawn): 1.7 nM and 0.09 nM. Taken in the same sequence, the figures for `NC1NC=Nc2c(CN3CC(O)C(CSc4ccc(F)cc4)C3)c[nH]c21` (stereo not drawn) were 0.81 nM and 0.16 nM. With `NC1NC=Nc2c(CN3CC(O)C(CSC4CCCCC4)C3)c[nH]c21` (stereo not drawn), the Ki worked out at 0.76 nM in data set [1] and 0.37 nM in data set [2]. The matching figures for `CCCCSCC1CN(Cc2c[nH]c3c2N=CNC3N)CC1O` (stereo not drawn): 0.28 nM and 0.11 nM.

For the molecule `CCSCC1CN(Cc2c[nH]c3c2N=CNC3N)CC1O` (stereo not drawn), the inhibition constant (Ki) in data set [1] is 0.65 nM; in data set [2] it was 0.034 nM.

In the case of `CCCC1CN(Cc2c[nH]c3c2N=CNC3N)CC1O` (stereo not drawn), the inhibitory constant (Ki) in data set [1] was determined as 22 nM; in data set [2] it was 3 nM. As to `NC1NC=Nc2c(CN3CC(O)C(CSc4ccccc4)C3)c[nH]c21` (stereo not drawn), the Ki in data set [1] is 1.5 nM; in data set [2], 0.17 nM.

Regarding `Nc1ncnc2c(CN3CC(O)C(CSCc4ccccc4)C3)n[nH]c12` (stereo not drawn), the Ki result in data set [3] is “No slow-onset phase observed”; in data set [1], 55 nM. As to `CC(C)SCC1CN(Cc2c[nH]c3c2NC=NC3N)CC1O` (stereo not drawn), the inhibition constant (Ki) stood at 0.9 nM in data set [1] and 0.26 nM in data set [2]. With `COCC1CN(Cc2c[nH]c3c2N=CNC3N)CC1O` (stereo not drawn), the Ki was 14 nM in data set [1] and 8 nM in data set [2].

For the molecule `Nc1[nH]cnc2c(CN3CC(O)C(CSCc4ccccc4)C3)cnc1-2` (stereo not drawn), the results for the inhibition constant (Ki) in data set [1] and in data set [2] were 1.4 nM and 0.7 nM, respectively. Taken in the same sequence, the figures for `NC1N=CNc2c(CN3CC(O)C(CSc4ccc(Cl)cc4)C3)c[nH]c21` (stereo not drawn) were 0.36 nM and 0.01 nM. The matching figures for `NC1N=CNc2c(CN3CC(O)C(COCc4ccccc4)C3)c[nH]c21` (stereo not drawn): 85 nM and 42 nM. The matching figures for `NC1NC=Nc2c(CN3CC(O)C(CSc4cccc(Cl)c4)C3)c[nH]c21` (stereo not drawn): 2 nM and 0.27 nM.

B1: S-methyl-5'-thioadenosine phosphorylase (Homo sapiens), Q13126 (protein)
chain: T1 sequence (Q13126 whole entry)
In general, Km refers to the concentration of substrate that gives half-maximal velocity. Regarding B1, the Km in data set [4] was 5 µM.
